According to paper PMC10803328 (Scientific Reports, 2024):
“Also recorded” adds a separate entry of the source.

What was measured:
PSAM^4-GlyR = experiment: PET imaging and arterial plasma radiometabolite analysis in monkey transduced with PSAM^4-GlyR in the left amygdala; assay type: in vivo, rhesus monkey
Protocol: All studies were conducted in accordance with “Animal Research: Reporting of In Vivo Experiments” guidelines as well as Guidelines for the Care and Use of Laboratory Animals, 8th Edition, and were approved by the National Institute of Mental Health Animal Care and Use Committee. A lentivirus carrying an PSAM^4 expressed under a human synapsin promoter (Lenti-hSyn-PSAM^4-GlyR) was injected into the left amygdala of a single rhesus macaque (11-year-old male). 14 × 20 μL of virus was injected at 1.0 μL/min speed. The virus titer was measured at 1 × 10^9 i.u./mL. The surgery was performed under aseptic conditions in a fully equipped operating suite.
All PET imaging studies were performed with a Mediso LFER 150 preclinical scanner (nanoScan PET/CT). Brain and brain region radioactivity uptake was expressed by standardized uptake value (SUV) which normalizes for injected radioactivity and monkey body weight, as follows: SUV = [(% injected dose per g tissue) × body weight in g]/100.
Two male rhesus monkeys (macaca mulatta; 10.0 and 8.6 kg) underwent PET scanning. Each monkey was initially immobilized with ketamine (10 mg/kg, i.m.) and then maintained under anesthesia with 1.5% isoflurane. For each monkey, a baseline scan was performed for 120 min. […] Electrocardiogram, body temperature, heart, and respiration rates were monitored throughout the scans.
Total radioactivity concentrations in sampled arterial whole blood and plasma were measured in a γ-counter throughout the 90-min scanning period.
PET images were reconstructed using Fourier rebinding plus two-dimensional filtered back-projection with attenuation and scatter correction. Images were co-registered to a standardized monkey MRI template using the FMRIB Software Library (FSL; Oxford, UK). Thirty-four predefined brain regions of interest from the template were applied to the co-registered PET image to obtain regional, decay-corrected, time-activity curves.

[1] = In vitro stability in rat brain homogenate, whole blood and plasma; assay type: in vitro ADME
Protocol: In vitro stability was calculated by dividing the relative composition of the blood or brain homogenate determined with radio-HPLC by the initial radiochemical purity of the radioligand. […] The mixture was incubated at room temperature for 10 min and then processed exactly as described previously. The ultrafiltration components that contained high radioactivity were allowed time for radioactivity decay to within the optimal range of the γ-counter before they were counted again.
Five milliliters of anticoagulated blood (STD-A) and brain (1.8 g) were harvested from a wild-type rat (~ 450 g) and used in the in vitro assays. The brains were immediately weighed and homogenized with twice their weights (3.6 mL) of ice cold 0.9% NaCl solution. Plasmas were separated from whole blood via centrifugation. […] Following incubation, aliquots (450 µL) were removed for radio-analysis and processed as detailed above for radio-HPLC analysis.
Anticoagulated blood (STD-A; 5 mL) and brain (1.8 g) were harvested from a wild-type rat (~ 450 g) and used for the in vitro assays. The brains were immediately weighed and homogenized with twice their weights (3.6 mL) of ice-cold 0.9% saline. Plasma was separated from whole blood via centrifugation. […] Aliquots (450 µL) were then removed for radio analysis and processed as detailed above for radio-HPLC analysis.

[2] = in vitro incubation at 37 °C, rat

[11CH3]n1c(=O)cnc2cc3c(cc21)C1CNCC3C1 (stereo not shown) [[^11C]uPSEM792]
difference in uptake of radioactivity between left (PSAM^4-GlyR) and right amygdala (PSAM^4-GlyR; PSAM^4-GlyR monkey, PET): No significant difference
evidence of PSAM^4-GlyR specific binding in left amygdala (PSAM^4-GlyR; PSAM^4-GlyR monkey, PET, compartmental modeling): do not reveal any evidence of specific binding; also recorded: no evidence was obtained for PSAM^4-GlyR specific binding
time at which radiometabolites accounted for 50% of radioactivity in plasma (PSAM^4-GlyR; male, rhesus monkey, in vivo): 30 min
peak whole brain radioactivity uptake (PSAM^4-GlyR; monkey transduced in the left amygdala with PSAM^4-GlyR, i.v., PET): ~ 0.8 SUV
in vitro stability in homogenized non-perfused rat brain ([1]; 30 min at 37 °C): 94%
in vitro stability in rat plasma ([1]; 30 min at 37 °C): 85.4%
in vitro stability in rat whole blood ([1]; 30 min at 37 °C): 83.8%
HPLC Composition (%), in vitro fresh rat brain ([1]; in vitro incubation at 37 °C): 92%
HPLC Composition (%), in vitro plasma [1, 2]: 83%
HPLC Composition (%), in vitro whole blood [1, 2]: 82%
